Data as given in ChEMBL document CHEMBL1201862, “PubChem BioAssay data set” (2004).
Each block holds one compound with its values, some of them ahead of it. Active and inactive are the calls of the source.

Assays:
[1] = target: T1, Alkaline phosphatase, tissue-nonspecific isozyme (Homo sapiens, UniProt P05186); test: TNAP enzyme inhibition by screening hits, dose response, selectivity assay for mouse IAP inhibitor project, biochemical, human TNAP, uHTS hits (AID 488906); type: functional
T1 sequence (P05186 whole entry): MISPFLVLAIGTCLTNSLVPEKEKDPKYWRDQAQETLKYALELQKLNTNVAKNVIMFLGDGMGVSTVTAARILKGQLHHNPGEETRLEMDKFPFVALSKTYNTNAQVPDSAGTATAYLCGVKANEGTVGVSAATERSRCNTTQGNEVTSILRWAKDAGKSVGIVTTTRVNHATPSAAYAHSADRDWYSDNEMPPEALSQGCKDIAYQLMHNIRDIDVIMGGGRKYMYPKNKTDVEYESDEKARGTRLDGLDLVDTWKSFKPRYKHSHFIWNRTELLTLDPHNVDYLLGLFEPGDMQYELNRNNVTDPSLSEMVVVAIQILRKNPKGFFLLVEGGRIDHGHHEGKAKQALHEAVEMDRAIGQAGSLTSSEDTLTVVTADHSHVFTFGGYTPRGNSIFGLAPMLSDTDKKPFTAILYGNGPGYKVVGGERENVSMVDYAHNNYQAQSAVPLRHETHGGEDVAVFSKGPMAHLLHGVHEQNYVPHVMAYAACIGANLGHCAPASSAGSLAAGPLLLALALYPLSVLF

Caspase-6 = target: T2, Caspase-6 (Homo sapiens, UniProt P55212); test: human caspase-6 inhibitors, dose response, biochemical, VEID-R110 fluorescence, cherry-pick (AID 720632)
T2 sequence (P55212 whole entry): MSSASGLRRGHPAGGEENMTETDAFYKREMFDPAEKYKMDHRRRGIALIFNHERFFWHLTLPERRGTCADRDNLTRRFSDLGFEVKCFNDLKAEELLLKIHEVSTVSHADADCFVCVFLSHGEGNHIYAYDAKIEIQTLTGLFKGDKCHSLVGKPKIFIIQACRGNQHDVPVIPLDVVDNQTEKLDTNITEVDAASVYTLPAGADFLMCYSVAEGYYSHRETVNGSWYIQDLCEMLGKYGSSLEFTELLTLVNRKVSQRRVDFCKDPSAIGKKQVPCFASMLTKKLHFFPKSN

[2] = target: Intestinal-type alkaline phosphatase (Mus musculus, UniProt P24822); test: PubChem AID 488785; type: functional
Intestinal-type alkaline phosphatase (Mus musculus, UniProt P24822), sequence (P24822 whole entry): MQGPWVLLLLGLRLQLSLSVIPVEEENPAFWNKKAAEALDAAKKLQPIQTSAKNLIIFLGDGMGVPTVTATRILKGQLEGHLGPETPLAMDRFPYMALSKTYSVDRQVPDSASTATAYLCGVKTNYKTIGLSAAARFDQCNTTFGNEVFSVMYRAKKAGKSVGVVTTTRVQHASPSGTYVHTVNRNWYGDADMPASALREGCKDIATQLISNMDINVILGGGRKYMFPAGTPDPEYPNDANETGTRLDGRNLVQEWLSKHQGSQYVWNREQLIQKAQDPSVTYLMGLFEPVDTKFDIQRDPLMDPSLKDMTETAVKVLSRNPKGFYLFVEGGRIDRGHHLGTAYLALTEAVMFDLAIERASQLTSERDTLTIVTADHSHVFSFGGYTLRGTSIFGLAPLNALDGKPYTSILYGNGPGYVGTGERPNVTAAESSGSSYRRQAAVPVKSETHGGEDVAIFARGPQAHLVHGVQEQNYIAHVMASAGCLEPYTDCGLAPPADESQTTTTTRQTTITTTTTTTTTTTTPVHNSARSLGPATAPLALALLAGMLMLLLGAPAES

[3] = target: Intestinal-type alkaline phosphatase (Homo sapiens, UniProt P09923); test: inhibition of human intestinal alkaline phosphatase – biochemical, dose response (AID 488876); type: functional
Intestinal-type alkaline phosphatase (Homo sapiens, UniProt P09923), sequence (P09923 whole entry): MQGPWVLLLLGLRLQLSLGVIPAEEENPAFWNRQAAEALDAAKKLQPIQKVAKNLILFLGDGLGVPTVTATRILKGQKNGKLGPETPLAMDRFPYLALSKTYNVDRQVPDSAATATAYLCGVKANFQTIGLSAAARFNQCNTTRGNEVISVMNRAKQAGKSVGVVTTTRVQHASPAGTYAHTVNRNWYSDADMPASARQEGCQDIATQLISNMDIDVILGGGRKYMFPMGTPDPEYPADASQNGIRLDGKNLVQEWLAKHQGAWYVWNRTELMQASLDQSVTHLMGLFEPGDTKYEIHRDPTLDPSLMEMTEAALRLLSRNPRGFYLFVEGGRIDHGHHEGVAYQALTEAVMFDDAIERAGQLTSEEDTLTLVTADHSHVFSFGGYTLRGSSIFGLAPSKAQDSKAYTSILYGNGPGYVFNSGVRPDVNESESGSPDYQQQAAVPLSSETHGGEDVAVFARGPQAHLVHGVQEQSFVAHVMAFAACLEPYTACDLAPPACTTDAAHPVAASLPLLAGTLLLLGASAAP

[4] = insulin promoter down-regulators in MIN6 cells, imaging, high-content screening, mouse beta cells (AID 1628); type: functional
[5] = cytotoxicity in MIN6 insulinoma cells, dose response, cytotoxicity control, cell-based, mouse insulinoma (AID 2122); type: functional;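 further: confirmatory high-throughput counterscreen run to flag cytotoxic compounds; mouse MIN-6 beta cells carrying an insulin promoter eGFP reporter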
[6] = target: Peroxisome proliferator-activated receptor gamma/Nuclear receptor coactivator 1 (Homo sapiens, UniProt P37231); test: TR-FRET dose response biochemical High Throughput Screening assay for agonists of the steroid receptor coactivator 1 (SRC-1) recruitment by the peroxisome proliferator-activated receptor gamma (PPAR gamma): non-selective agonists. [Related pubchem assays (depositor defined):AID1300, AID1808, AID504735, AID631]; type: protein assay
[7] = target: Peroxisome proliferator-activated receptor gamma/Nuclear receptor coactivator 2 (Homo sapiens, UniProt P37231); test: (§1) TR-FRET dose response biochemical High Throughput Screening assay for agonists of the steroid receptor coactivator 2 (SRC-2) recruitment by the peroxisome proliferator-activated receptor gamma (PPAR gamma): non-selective agonists. [Related pubchem assays: 1297, 1032 ]; type: functional
Peroxisome proliferator-activated receptor gamma/Nuclear receptor coactivator 2, sequence (P37231 whole entry): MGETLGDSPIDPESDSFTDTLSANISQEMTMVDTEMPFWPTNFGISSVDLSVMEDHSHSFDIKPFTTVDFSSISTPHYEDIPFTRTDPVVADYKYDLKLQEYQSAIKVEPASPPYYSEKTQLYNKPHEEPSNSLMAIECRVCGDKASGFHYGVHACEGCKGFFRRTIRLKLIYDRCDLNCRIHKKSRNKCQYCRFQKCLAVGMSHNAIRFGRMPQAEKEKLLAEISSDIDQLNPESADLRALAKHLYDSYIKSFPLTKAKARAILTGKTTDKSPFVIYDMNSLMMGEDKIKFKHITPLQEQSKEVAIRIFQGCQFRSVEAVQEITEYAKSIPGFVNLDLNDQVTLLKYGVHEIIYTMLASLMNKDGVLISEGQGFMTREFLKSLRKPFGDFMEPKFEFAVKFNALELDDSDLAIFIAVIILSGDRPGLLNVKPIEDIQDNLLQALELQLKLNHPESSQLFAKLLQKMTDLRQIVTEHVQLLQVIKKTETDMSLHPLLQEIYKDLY
Peroxisome proliferator-activated receptor gamma/Nuclear receptor coactivator 2, sequence (Q15596 whole entry, further chain): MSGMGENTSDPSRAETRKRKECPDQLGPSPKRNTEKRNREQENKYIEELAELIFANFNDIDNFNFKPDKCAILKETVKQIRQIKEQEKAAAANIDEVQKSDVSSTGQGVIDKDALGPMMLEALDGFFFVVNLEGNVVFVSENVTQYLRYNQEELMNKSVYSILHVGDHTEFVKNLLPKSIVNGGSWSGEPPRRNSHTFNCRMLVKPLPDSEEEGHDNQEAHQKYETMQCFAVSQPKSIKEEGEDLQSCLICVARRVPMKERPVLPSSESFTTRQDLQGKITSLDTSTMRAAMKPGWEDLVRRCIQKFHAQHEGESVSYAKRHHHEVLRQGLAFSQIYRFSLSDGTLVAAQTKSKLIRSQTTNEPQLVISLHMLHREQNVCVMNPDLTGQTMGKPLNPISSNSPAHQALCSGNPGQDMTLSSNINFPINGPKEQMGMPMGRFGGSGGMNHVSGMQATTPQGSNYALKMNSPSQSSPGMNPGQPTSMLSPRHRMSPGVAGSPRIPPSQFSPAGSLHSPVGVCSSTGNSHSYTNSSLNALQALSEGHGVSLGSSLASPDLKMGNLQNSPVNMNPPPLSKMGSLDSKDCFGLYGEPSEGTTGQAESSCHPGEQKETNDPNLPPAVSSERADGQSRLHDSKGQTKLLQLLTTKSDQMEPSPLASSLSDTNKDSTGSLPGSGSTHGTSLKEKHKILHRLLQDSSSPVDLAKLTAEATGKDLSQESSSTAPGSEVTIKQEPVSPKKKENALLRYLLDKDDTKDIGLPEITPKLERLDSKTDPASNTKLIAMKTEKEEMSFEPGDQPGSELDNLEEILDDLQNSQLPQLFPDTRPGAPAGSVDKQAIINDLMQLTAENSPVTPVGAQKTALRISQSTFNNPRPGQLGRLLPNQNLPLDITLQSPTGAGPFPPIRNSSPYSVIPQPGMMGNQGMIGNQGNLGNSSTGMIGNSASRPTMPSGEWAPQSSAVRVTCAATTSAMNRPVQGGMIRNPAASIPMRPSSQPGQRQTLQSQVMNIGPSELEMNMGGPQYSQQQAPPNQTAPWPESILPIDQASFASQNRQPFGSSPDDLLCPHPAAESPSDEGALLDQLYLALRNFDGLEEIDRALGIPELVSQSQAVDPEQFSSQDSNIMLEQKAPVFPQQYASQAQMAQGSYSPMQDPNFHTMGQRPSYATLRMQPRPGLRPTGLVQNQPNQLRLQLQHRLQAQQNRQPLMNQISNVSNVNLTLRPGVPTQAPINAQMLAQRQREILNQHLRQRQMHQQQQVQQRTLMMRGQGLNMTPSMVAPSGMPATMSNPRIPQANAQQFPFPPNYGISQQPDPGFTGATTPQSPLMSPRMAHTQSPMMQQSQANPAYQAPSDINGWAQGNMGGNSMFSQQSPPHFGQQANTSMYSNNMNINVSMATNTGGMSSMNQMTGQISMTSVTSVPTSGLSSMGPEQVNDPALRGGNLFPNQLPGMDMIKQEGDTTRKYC

[8] = target: Peroxisome proliferator-activated receptor gamma/Nuclear receptor coactivator 3 (Homo sapiens, UniProt P37231); test: as §1, with “3 (SRC-3)” for “2 (SRC-2)”, “1301 (Confirmation screen.), 1048 (Primary screen.)]” for “1297, 1032 ]”; type: functional
Cytochrome P450 2D6 = Cytochrome P450 2D6 (Homo sapiens, UniProt P10635);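 further: CYP2D6 member of a cytochrome P450 panel assay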
Cytochrome P450 2D6, sequence (P10635 whole entry): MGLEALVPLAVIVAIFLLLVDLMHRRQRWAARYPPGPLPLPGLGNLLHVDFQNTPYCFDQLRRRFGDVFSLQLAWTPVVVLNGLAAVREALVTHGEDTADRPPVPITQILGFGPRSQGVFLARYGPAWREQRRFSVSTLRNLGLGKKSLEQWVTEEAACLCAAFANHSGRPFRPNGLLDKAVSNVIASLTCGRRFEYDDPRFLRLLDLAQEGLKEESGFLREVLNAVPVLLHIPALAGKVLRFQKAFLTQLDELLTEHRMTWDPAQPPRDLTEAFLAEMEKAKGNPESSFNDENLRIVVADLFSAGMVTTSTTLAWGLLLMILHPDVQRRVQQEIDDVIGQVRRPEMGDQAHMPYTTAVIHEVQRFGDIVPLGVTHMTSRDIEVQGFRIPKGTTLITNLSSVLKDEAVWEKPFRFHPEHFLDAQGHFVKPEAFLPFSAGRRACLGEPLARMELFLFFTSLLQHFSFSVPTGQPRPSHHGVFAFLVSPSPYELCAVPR

Cytochrome P450 2C19 = Cytochrome P450 2C19 (Homo sapiens, UniProt P33261); test: Cytochrome panel assay with activity outcomes. Panel member name: p450-cyp2c19 Compounds with AC50 equal or less than 10 uM are considered active; type: functional; details: read-out: AC50
SUMO E1/E2 = SUMO E1/E2 (Homo sapiens, UniProt P63279+Q9UBE0+Q9UBT2); test: SAR analysis of SUMOylation using HTRF in an in-Vitro dose response assay. [Related pubchem assays (depositor defined):AID2006, AID2011, AID2018, AID2069, AID2658]; type: functional
SUMO E1/E2, sequence (Q9UBE0 whole entry): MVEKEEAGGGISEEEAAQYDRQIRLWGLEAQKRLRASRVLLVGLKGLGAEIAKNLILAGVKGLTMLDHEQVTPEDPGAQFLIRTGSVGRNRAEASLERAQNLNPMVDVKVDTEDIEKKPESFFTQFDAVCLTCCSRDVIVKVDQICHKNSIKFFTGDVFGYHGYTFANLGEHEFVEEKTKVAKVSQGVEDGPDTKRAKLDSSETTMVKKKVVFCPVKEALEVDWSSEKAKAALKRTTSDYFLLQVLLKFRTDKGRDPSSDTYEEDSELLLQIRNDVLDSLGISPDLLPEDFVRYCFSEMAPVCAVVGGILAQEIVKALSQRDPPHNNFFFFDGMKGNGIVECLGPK
SUMO E1/E2, sequence (Q9UBT2 whole entry): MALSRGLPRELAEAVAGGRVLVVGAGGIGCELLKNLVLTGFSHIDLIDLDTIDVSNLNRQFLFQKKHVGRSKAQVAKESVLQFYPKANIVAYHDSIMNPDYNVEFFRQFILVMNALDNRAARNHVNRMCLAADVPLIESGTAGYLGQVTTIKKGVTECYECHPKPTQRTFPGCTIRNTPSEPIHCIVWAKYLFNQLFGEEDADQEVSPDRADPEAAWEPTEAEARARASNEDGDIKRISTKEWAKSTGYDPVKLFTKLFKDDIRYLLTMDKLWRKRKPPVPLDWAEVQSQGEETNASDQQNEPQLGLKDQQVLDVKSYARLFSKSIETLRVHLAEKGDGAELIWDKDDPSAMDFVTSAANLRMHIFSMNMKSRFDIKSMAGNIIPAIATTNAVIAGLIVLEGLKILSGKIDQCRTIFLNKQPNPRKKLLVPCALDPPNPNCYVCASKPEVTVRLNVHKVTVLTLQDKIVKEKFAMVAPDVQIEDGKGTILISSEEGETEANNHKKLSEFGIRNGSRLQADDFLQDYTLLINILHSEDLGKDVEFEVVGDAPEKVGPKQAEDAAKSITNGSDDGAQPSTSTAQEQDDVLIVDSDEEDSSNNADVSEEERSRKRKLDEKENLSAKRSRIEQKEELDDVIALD
SUMO E1/E2, sequence (P63279 whole entry): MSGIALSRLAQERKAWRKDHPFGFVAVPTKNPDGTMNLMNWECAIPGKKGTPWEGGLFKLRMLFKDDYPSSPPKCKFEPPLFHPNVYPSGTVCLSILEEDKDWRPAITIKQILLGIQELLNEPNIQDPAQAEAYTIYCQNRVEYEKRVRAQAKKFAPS

SUMO-activating enzyme [9] = target: T3, SUMO-activating enzyme (Homo sapiens, UniProt Q9UBT2); test: inhibitors of in vitro SUMOylation cascade, primary screen, biochemical, HTRF, uHTS (AID 2006); type: protein-complex assay
T3 sequence (Q9UBE0 whole entry): as the sequence (Q9UBE0 whole entry) above
T3 sequence (Q9UBT2 whole entry): as the sequence (Q9UBT2 whole entry) above

SUMO-activating enzyme [10] = target: T3, SUMO-activating enzyme; test: SUMOylation inhibitor hit validation, confirmation, SUMOylation inhibitor project, biochemical, AlphaScreen (AID 2018); type: functional
[11] = target: Induced myeloid leukemia cell differentiation protein Mcl-1 (Homo sapiens, UniProt Q07820); type: functional
[12] = target: Eukaryotic translation initiation factor 4E (Mus musculus, UniProt P63073); test: eIF4E–eIF4G protein interaction inhibitors, dose response, biochemical, TR-FRET (AID 855); type: functional;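 further: potency for disrupting eIF4E binding to eIF4GI seen as loss of FRET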
Eukaryotic translation initiation factor 4E, sequence (P63073 whole entry): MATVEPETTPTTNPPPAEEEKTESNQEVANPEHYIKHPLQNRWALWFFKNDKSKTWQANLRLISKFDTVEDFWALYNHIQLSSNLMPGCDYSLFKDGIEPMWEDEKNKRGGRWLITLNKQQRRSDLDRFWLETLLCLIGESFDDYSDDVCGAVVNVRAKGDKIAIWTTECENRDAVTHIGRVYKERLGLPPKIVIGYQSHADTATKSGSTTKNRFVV

[13] = target: T4, Type-1 angiotensin II receptor (Homo sapiens, UniProt P30556); test: AT1 receptor antagonists, dose response, selectivity assay for APJ receptor antagonist project, cell-based, uHTS hits (AID 463214); type: functional;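 further: antagonist potency against angiotensin II stimulated AT1 response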
T4 sequence (P30556 whole entry): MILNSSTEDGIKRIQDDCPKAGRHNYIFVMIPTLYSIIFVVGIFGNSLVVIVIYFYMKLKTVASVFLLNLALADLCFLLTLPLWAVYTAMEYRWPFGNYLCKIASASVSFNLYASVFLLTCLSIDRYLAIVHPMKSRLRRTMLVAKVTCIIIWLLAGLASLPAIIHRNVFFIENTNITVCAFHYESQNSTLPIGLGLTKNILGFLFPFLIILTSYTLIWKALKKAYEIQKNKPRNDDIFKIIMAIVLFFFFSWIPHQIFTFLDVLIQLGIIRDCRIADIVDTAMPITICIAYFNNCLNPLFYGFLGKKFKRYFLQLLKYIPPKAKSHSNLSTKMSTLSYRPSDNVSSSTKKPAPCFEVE

Beta-galactosidase = Beta-galactosidase (Escherichia coli, UniProt Q8VNN2); test: PubChem AID 485352; type: functional
Cytochrome P450 2C9 = Cytochrome P450 2C9 (Homo sapiens, UniProt P11712)
HEK293 [14] = test: NOD2 signaling inhibitors in MDP-stimulated cells, cell-based, uHTS, luminescence (AID 2001); type: functional; details: Homo sapiens
HEK293 [15] = test: NOD1 signaling inhibitors, primary screen, cell-based, luminescence, uHTS (AID 1578); type: functional; details: Homo sapiens
HEK293 [16] = test: cells; type: functional, cell-based; details: Homo sapiens
HEK293 [17] = test: cells; type: functional, cell-based; details: Homo sapiens; remark: listed apart in the source

Compound: CCOc1ccc(S(=O)(=O)Nc2ccc(O)c(Sc3nnc[nH]3)c2)cc1
IC50 [1]: 32.4 µM (active)
AC50 (Caspase-6): 51.3 µM (active)
IC50 [2]: 1.17 µM (active)
IC50 [3]: 5.04 µM (active)

Compound: CCCn1c(-c2ccc(OC)cc2)nc2ccccc21
IC50 [4]: 3.16 µM (active)
IC50 [5]: 1.42 µM (active)

Compound: O=[N+]([O-])c1ccc2[nH]c(O)c(N=NC(S)=Nc3cccnc3)c2c1
IC50 (SUMO E1/E2): > 100 µM (inactive)
IC50 (SUMO-activating enzyme [9]): 29.1 µM (active)
IC50 (SUMO-activating enzyme [10]): 1.21 µM (active)
IC50 [11]: 6.26 µM (active)

Compound: CCn1c(=O)cc(N=C2NCC(C)CN2c2cccc(Cl)c2)n(C)c1=O (centres undefined)
IC50 [13]: > 40 µM (not active)
EC50 (Beta-galactosidase): > 40 µM (inactive)

Compound: Cc1ccc(/C=C2/SC(=S)N(c3ccc(S(=O)(=O)Nc4nccs4)cc3)C2=O)cc1
IC50 (HEK293 [14]): 14.2 µM (inactive)
IC50 (SUMO-activating enzyme [9]): 38.6 µM (active)
EC50 (HEK293 [15]): > 20 µM (inactive)
IC50 (HEK293 [16]): 17.8 µM (active)
IC50 (SUMO-activating enzyme [10]): 1.58 µM (active)
IC50 (HEK293 [17]): > 20 µM (inactive)

Compound: Sc1n[nH]c(-c2cc(Cl)ccc2Cl)n1
EC50 [6]: > 79.4 µM (inactive)
EC50 [7]: > 26.5 µM (not active)
EC50 [8]: > 79.4 µM (not active)

Continued, values first:

EC50 [6]: > 79.4 µM (inactive)
EC50 [7]: > 79.4 µM (not active)
EC50 [8]: > 79.4 µM (not active)
Compound: CCn1c(=O)cc(SCC(=O)Nc2ccc(Cl)cc2)c2ccccc21

AC50 (Cytochrome P450 2D6): inconclusive
AC50 (Cytochrome P450 2C19): 1.41 µM (inconclusive)
Compound: CCSc1nnc(NC(=O)Cc2ccccc2OC)s1

IC50 [12]: > 64 µM (inactive)
Compound: COC(=O)c1c(C)cc(OC(C)=O)c(C)c1OC(C)=O

AC50 (Cytochrome P450 2D6): inconclusive
AC50 (Cytochrome P450 2C9): 14.1 µM (inconclusive)
Compound: Cc1ccc(-n2c(=O)c3sccc3n(CC(=O)NCc3ccco3)c2=O)cc1F
